Reference: US9255295B2, “Method for evaluating the sensitizing potential of a test compound” (IMMUNOSEARCH, priority 2010, dated 2016)
Where two headings read alike, the source gives them in different places.

What was measured:
[1] = system: genes specific for sensitization (BRAK, CTSS, DAPK2, FABP4, HSP27, IL18, HSP90, IL1R2, TPSAB1, CXCR1, DEFB1, DHFR, EHF, IVL, KRT4, MELANA, NGAL, PDZK1IP1, PI3 …); test: Expression of the other (non-ARE) sensitization-specific genes in EPISKIN reconstructed skin (quantitative RT-PCR); type: cell-based, human; conditions: for BRAK expression / CTSS expression / CXCR1 expression / DAPK2 expression / DEFB1 expression / DHFR expression / EHF expression / FABP4 expression / HSP27 expression / HSP90 expression / IL18 expression / IVL expression / KRT4 expression / MELANA expression / NGAL expression / P13 expression / PDZK1iP1 expression / SERPINB3 expression: compared to the control;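 on CTSS NUMBER OF GENES grade: grade scored against expression in the control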;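 on CXCR1 NUMBER OF GENES grade: grade scored against expression in the control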;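 on DAPK2 NUMBER OF GENES grade: grade scored against expression in the control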
[2] = system: ARE gene family (AKR1B10, AKR1C1, AKR1C2, CYP1B1, FTH1P, FTL, G6PD, GCLM, NQO2, SLC7A11, TXNRD1, UGT1A1, UGT1A9, YWHAZ, CD36, CYP1A1, GCLC, HMOX1, NQO1, PSME2 …)
[3] = system: EPISKIN model
Text: (§1) “Sensitizing power” means the ability of a given compound to induce a sensitization reaction according to the concentration of said compound. Sensitizing power is dependent on the quantity of substance necessary to induce sensitization. Thus, the lower the sensitizing quantity necessary to induce a sensitizing response, the stronger the sensitizer is, and vice versa, the higher the sensitizing quantity necessary to induce a sensitizing response, the weaker the sensitizer is.
(§2) Thus, steps 1) and 2) will be done for each of the dilutions.

[4] = system: EPISKIN model; test: Sensitizing power: sensitizing potential retested at successive dilutions in the EPISKIN model
Text: as §1, §2

## CC(O)C(=O)O (centres unmarked) [Ac Lactique]
[1]
  SENS >1.3 (number of genes): 1
[2]
  AHR NUMBER OF GENES grade: 0 (key: If the expression is greater than 1.3 compared to the control, a grade of 11s given; if this expression is lower, the grade is 0)
  AHR expression: 0.8
  AKR1B10 NUMBER OF GENES grade: 0 (key: If the expression is greater than 1.3 compared to the control, a grade of 11s given; if this expression is lower, the grade is 0)
  AKR1C1 NUMBER OF GENES grade: 0 (key: If the expression is greater than 1.3 compared to the control, a grade of 11s given; if this expression is lower, the grade is 0)
  AKR1C2 NUMBER OF GENES grade: 0 (key: If the expression is greater than 1.3 compared to the control, a grade of 11s given; if this expression is lower, the grade is 0)
  ARE >1.3 (number of genes): 0
  CYP1B1 NUMBER OF GENES grade: 0 (key: If the expression is greater than 1.3 compared to the control, a grade of 11s given; if this expression is lower, the grade is 0)
  FTH1P NUMBER OF GENES grade: 0 (key: If the expression is greater than 1.3 compared to the control, a grade of 11s given; if this expression is lower, the grade is 0)
  FTL NUMBER OF GENES grade: 0 (key: If the expression is greater than 1.3 compared to the control, a grade of 11s given; if this expression is lower, the grade is 0)
  GCLC NUMBER OF GENES grade: 0 (key: If the expression is greater than 1.3 compared to the control, a grade of 11s given; if this expression is lower, the grade is 0)
  GCLM NUMBER OF GENES grade: 0 (key: If the expression is greater than 1.3 compared to the control, a grade of 11s given; if this expression is lower, the grade is 0)
  GCLM expression: 1.1
  HMOX1 NUMBER OF GENES grade: 0 (key: If the expression is greater than 1.3 compared to the control, a grade of 11s given; if this expression is lower, the grade is 0)
  NQO1 NUMBER OF GENES grade: 0 (key: If the expression is greater than 1.3 compared to the control, a grade of 11s given; if this expression is lower, the grade is 0)
  NQO2 NUMBER OF GENES grade: 0 (key: If the expression is greater than 1.3 compared to the control, a grade of 11s given; if this expression is lower, the grade is 0)
  NQO2 expression: 1.2
  SLC7A11 NUMBER OF GENES grade: 0 (key: If the expression is greater than 1.3 compared to the control, a grade of 11s given; if this expression is lower, the grade is 0)
  SLC7A11 expression: 1.0
  TOTAL ARE (number of genes): 0
  TXNRD1 NUMBER OF GENES grade: 0 (key: If the expression is greater than 1.3 compared to the control, a grade of 11s given; if this expression is lower, the grade is 0)
  UGT1A1 NUMBER OF GENES grade: 0 (key: If the expression is greater than 1.3 compared to the control, a grade of 11s given; if this expression is lower, the grade is 0)
  UGT1A1 expression: 1.3
  UGT1A9 NUMBER OF GENES grade: 0 (key: If the expression is greater than 1.3 compared to the control, a grade of 11s given; if this expression is lower, the grade is 0)
  UGT1A9 expression: 0.8
[3]
  sensitizing potential (conclusion): Non-sensitizing
[4]
  NUMBER OF GENES overexpressed, sum column 8: 0

## C=CCc1ccc(O)c(OC)c1 [Eugenol]
[1]; 10%
  BRAK NUMBER OF GENES grade: 0 (if this expression is lower, the grade is 0)
  CTSS NUMBER OF GENES grade: 0 (if this expression is lower, the grade is 0)
  CXCR1 NUMBER OF GENES grade: 0 (if this expression is lower, the grade is 0)
  DAPK2 NUMBER OF GENES grade: 1 (If the expression is greater than 1.3 compared to the control, a grade of 11s given)
  DEFB1 NUMBER OF GENES grade: 0 (if this expression is lower, the grade is 0)
  DHFR NUMBER OF GENES grade: 0 (if this expression is lower, the grade is 0)
  EHF NUMBER OF GENES grade: 1 (If the expression is greater than 1.3 compared to the control, a grade of 11s given)
  FABP4 NUMBER OF GENES grade: 0 (if this expression is lower, the grade is 0)
  HSP27 NUMBER OF GENES grade: 0 (if this expression is lower, the grade is 0)
  HSP90 NUMBER OF GENES grade: 0 (if this expression is lower, the grade is 0)
  IL18 NUMBER OF GENES grade: 0 (if this expression is lower, the grade is 0)
  IVL NUMBER OF GENES grade: 0 (if this expression is lower, the grade is 0)
  KRT4 NUMBER OF GENES grade: 0 (if this expression is lower, the grade is 0)
  MELANA NUMBER OF GENES grade: 1 (If the expression is greater than 1.3 compared to the control, a grade of 11s given)
  NGAL NUMBER OF GENES grade: 0 (if this expression is lower, the grade is 0)
  P13 NUMBER OF GENES grade: 0 (if this expression is lower, the grade is 0)
  PDZK1iP1 NUMBER OF GENES grade: 0 (if this expression is lower, the grade is 0)
  SENS >1.3 (number of genes): 4
  SERPINB3 NUMBER OF GENES grade: 0 (if this expression is lower, the grade is 0)
  TOTAL SENS (number of genes): 4
  BRAK expression: 0.7
  CTSS expression: 1.0
  CXCR1 expression: 0.8
  DAPK2 expression: 1.3
  DEFB1 expression: 1.1
  DHFR expression: 0.8
  EHF expression: 1.3
  FABP4 expression: 0.6
  HSP27 expression: 1.1
  HSP90 expression: 1.1
  IL18 expression: 1.1
  IVL expression: 0.9
  KRT4 expression: 0.8
  MELANA expression: 1.9
  NGAL expression: 0.7
  P13 expression: 0.9
  PDZK1iP1 expression: 0.9
  SERPINB3 expression: 1.2
[1]; 50%
  BRAK NUMBER OF GENES grade: 0 (if this expression is lower, the grade is 0)
  CTSS NUMBER OF GENES grade: 0 (if this expression is lower, the grade is 0)
  CXCR1 NUMBER OF GENES grade: 1 (If the expression is greater than 1.3 compared to the control, a grade of 11s given)
  DAPK2 NUMBER OF GENES grade: 1 (If the expression is greater than 1.3 compared to the control, a grade of 11s given)
  DEFB1 NUMBER OF GENES grade: 1 (If the expression is greater than 1.3 compared to the control, a grade of 11s given)
  DHFR NUMBER OF GENES grade: 0 (if this expression is lower, the grade is 0)
  EHF NUMBER OF GENES grade: 0 (if this expression is lower, the grade is 0)
  FABP4 NUMBER OF GENES grade: 1 (If the expression is greater than 1.3 compared to the control, a grade of 11s given)
  HSP27 NUMBER OF GENES grade: 1 (If the expression is greater than 1.3 compared to the control, a grade of 11s given)
  HSP90 NUMBER OF GENES grade: 1 (If the expression is greater than 1.3 compared to the control, a grade of 11s given)
  IL18 NUMBER OF GENES grade: 0 (if this expression is lower, the grade is 0)
  IVL NUMBER OF GENES grade: 1 (If the expression is greater than 1.3 compared to the control, a grade of 11s given)
  KRT4 NUMBER OF GENES grade: 1 (If the expression is greater than 1.3 compared to the control, a grade of 11s given)
  MELANA NUMBER OF GENES grade: 0 (if this expression is lower, the grade is 0)
  NGAL NUMBER OF GENES grade: 1 (If the expression is greater than 1.3 compared to the control, a grade of 11s given)
  P13 NUMBER OF GENES grade: 1 (If the expression is greater than 1.3 compared to the control, a grade of 11s given)
  PDZK1iP1 NUMBER OF GENES grade: 1 (If the expression is greater than 1.3 compared to the control, a grade of 11s given)
  SENS >1.3 (number of genes): 15
  SERPINB3 NUMBER OF GENES grade: 1 (If the expression is greater than 1.3 compared to the control, a grade of 11s given)
  TOTAL SENS (number of genes): 15
  BRAK expression: 0.4
  CTSS expression: 0.1
  CXCR1 expression: 2.2
  DAPK2 expression: 1.5
  DEFB1 expression: 3.0
  DHFR expression: 0.6
  EHF expression: 1.2
  FABP4 expression: 1.4
  HSP27 expression: 5.4
  HSP90 expression: 9.1
  IL18 expression: 0.7
  IVL expression: 2.6
  KRT4 expression: 4.6
  MELANA expression: 1.0
  NGAL expression: 1.3
  P13 expression: 1.4
  PDZK1iP1 expression: 1.7
  SERPINB3 expression: 1.4
[2]
  ARE >1.3 (number of genes): 10
  TOTAL ARE (number of genes): 10
[2]; human, 6 h, 10 %
  AHR expression: 0.8
  AKR1B10 expression: 0.9
  AKR1C1 expression: 1.3
  AKR1C2 expression: 1.1
  ARE >1.3 (number of genes): 3
  CD36 expression: 1.7
  CYP1A1 expression: 0.5
  CYP1B1 expression: 0.6
  FTH1P expression: 1.1
  FTL expression: 1.1
  GCLC expression: 1.3
  GCLM expression: 1.1
  HMOX1 expression: 1.3
  NQO1 expression: 1.1
  NQO2 expression: 1.0
  S100A8 expression: 1.0
  SLC7A11 expression: 1.2
  TOTAL ARE (number of genes): 3
  TXNRD1 expression: 1.1
  UGT1A1 expression: 1.0
  UGT1A9 expression: 0.7
[2]; human, 6 h, 50 %
  AHR expression: 1.3
  AKR1B10 expression: 1.0
  AKR1C1 expression: 0.7
  AKR1C2 expression: 0.7
  CD36 expression: 2.3
  CYP1A1 expression: 2.3
  CYP1B1 expression: 0.9
  FTH1P expression: 2.3
  FTL expression: 4.2
  GCLC expression: 3.2
  GCLM expression: 1.1
  HMOX1 expression: 2.4
  NQO1 expression: 0.7
  NQO2 expression: 1.3
  S100A8 expression: 1.9
  SLC7A11 expression: 2.6
  TXNRD1 expression: 3.0
  UGT1A1 expression: 0.5
  UGT1A9 expression: 25.0
[3]
  sensitizing power (class): WEAK
